Laboratory results as given in ChEMBL document CHEMBL1151757, “Synthesis, radiosynthesis, and biological evaluation of fluorine-18-labeled 2beta-carbo(fluoroalkoxy)-3beta-(3'-((Z)-2-haloethenyl)phenyl)nortropanes: candidate radioligands for in vivo imaging of the serotonin transporter with positron emission tomography” (J Med Chem, 2008).

Key:
[1] = test system: Thalamus; assay: Drug uptake in anesthetized cynomolgus monkey brain thalamus after 6.5 mins postinjection; type: ADME, organism-based, Macaca fascicularis; set-up: unit not given here; details: in vivo
[2] = Drug uptake in anesthetized cynomolgus monkey brain frontal lobe after 75 mins postinjection; type: ADME, organism-based, Macaca fascicularis; details: in vivo, 1.25 h
[3] = test system: Caudate; assay: Drug uptake in anesthetized cynomolgus monkey brain caudate after 6.5 mins postinjection; type: ADME, organism-based, Macaca fascicularis, Caudate nucleus; details: in vivo
[4] = Ratio of drug uptake in pons to cerebellum in anesthetized cynomolgus monkey after 85 mins postinjection; type: ADME, organism-based, Macaca fascicularis; details: in vivo
[5] = test system: Medulla; assay: Drug uptake in anesthetized cynomolgus monkey brain medulla after 85 mins postinjection; type: ADME, organism-based, Macaca fascicularis; details: in vivo
[6] = test system: Putamen; assay: Drug uptake in anesthetized cynomolgus monkey brain putamen after 85 mins postinjection; type: ADME, organism-based, Macaca fascicularis; set-up: unit not given here; details: in vivo
[7] = test system: Midbrain; assay: Drug uptake in anesthetized cynomolgus monkey brain midbrain after 145 mins postinjection; type: ADME, organism-based, Macaca fascicularis; details: in vivo
[8] = Ratio of drug uptake in putamen to cerebellum in anesthetized cynomolgus monkey after 165 mins postinjection; type: ADME, organism-based, Macaca fascicularis; details: in vivo, 2.75 h
[9] = test system: Midbrain; assay: Drug uptake in anesthetized cynomolgus monkey brain midbrain after 105 mins postinjection; type: ADME, organism-based, Macaca fascicularis; set-up: unit not given here; details: in vivo, 1.75 h
[10] = Ratio of drug uptake in pons to cerebellum in anesthetized cynomolgus monkey after 185 mins postinjection; type: ADME, organism-based, Macaca fascicularis; details: in vivo
[11] = Ratio of drug uptake in thalamus to cerebellum in anesthetized cynomolgus monkey after 9.5 mins postinjection; type: ADME, organism-based, Macaca fascicularis; details: in vivo
[12] = test system: Caudate; assay: Drug uptake in anesthetized cynomolgus monkey brain caudate after 95 mins postinjection; type: ADME, organism-based, Macaca fascicularis, Caudate nucleus; details: in vivo
[13] = test system: Thalamus; assay: Drug uptake in anesthetized cynomolgus monkey brain thalamus after 35 mins postinjection; type: ADME, organism-based, Macaca fascicularis; set-up: unit not given here; details: in vivo
[14] = Ratio of drug uptake in medulla to cerebellum in anesthetized cynomolgus monkey after 95 mins postinjection; type: ADME, organism-based, Macaca fascicularis; details: in vivo
[15] = test system: Pons; assay: Drug uptake in anesthetized cynomolgus monkey brain pons after 65 mins postinjection; type: ADME, organism-based, Macaca fascicularis; details: in vivo
[16] = test system: Medulla; assay: Drug uptake in anesthetized cynomolgus monkey brain medulla after 9.5 mins postinjection; type: ADME, organism-based, Macaca fascicularis; details: in vivo
[17] = Drug uptake in anesthetized cynomolgus monkey brain occipital lobe after 18.5 mins postinjection; type: ADME, organism-based, Macaca fascicularis; details: in vivo
[18] = Drug uptake in anesthetized cynomolgus monkey brain occipital lobe after 215 mins postinjection; type: ADME, organism-based, Macaca fascicularis; details: in vivo
[19] = test system: Midbrain; assay: Drug uptake in anesthetized cynomolgus monkey brain midbrain after 12.5 mins postinjection; type: ADME, organism-based, Macaca fascicularis; set-up: unit not given here; details: in vivo
[20] = test system: Midbrain; assay: Drug uptake in anesthetized cynomolgus monkey brain midbrain after 115 mins postinjection; type: ADME, organism-based, Macaca fascicularis; set-up: unit not given here; details: in vivo
[21] = Ratio of drug uptake in caudate to cerebellum in anesthetized cynomolgus monkey after 55 mins postinjection; type: ADME, organism-based, Macaca fascicularis; details: in vivo
[22] = Drug uptake in anesthetized cynomolgus monkey brain frontal lobe after 18.5 mins postinjection; type: ADME, organism-based, Macaca fascicularis; details: in vivo
[23] = Ratio of drug uptake in midbrain to cerebellum in anesthetized cynomolgus monkey after 185 mins postinjection; type: ADME, organism-based, Macaca fascicularis; details: in vivo
[24] = test system: Midbrain; assay: Drug uptake in anesthetized cynomolgus monkey brain midbrain after 125 mins postinjection; type: ADME, organism-based, Macaca fascicularis; set-up: unit not given here; details: in vivo
[25] = test system: Midbrain; assay: Drug uptake in anesthetized cynomolgus monkey brain midbrain after 205 mins postinjection; type: ADME, organism-based, Macaca fascicularis; details: in vivo
[26] = test system: Putamen; assay: Drug uptake in anesthetized cynomolgus monkey brain putamen after 175 mins postinjection; type: ADME, organism-based, Macaca fascicularis; details: in vivo
[27] = test system: Putamen; assay: Drug uptake in anesthetized cynomolgus monkey brain putamen after 6.5 mins postinjection; type: ADME, organism-based, Macaca fascicularis; set-up: unit not given here; details: in vivo
[28] = test system: Caudate; assay: Drug uptake in anesthetized cynomolgus monkey brain caudate after 225 mins postinjection; type: ADME, organism-based, Macaca fascicularis, Caudate nucleus; details: in vivo, 3.75 h
[29] = test system: Thalamus; assay: Drug uptake in anesthetized cynomolgus monkey brain thalamus after 1.5 mins postinjection; type: ADME, organism-based, Macaca fascicularis; details: in vivo, 0.025 h
[30] = test system: Medulla; assay: Drug uptake in anesthetized cynomolgus monkey brain medulla after 115 mins postinjection; type: ADME, organism-based, Macaca fascicularis; details: in vivo
[31] = test system: Pons; assay: Drug uptake in anesthetized cynomolgus monkey brain pons after 75 mins postinjection; type: ADME, organism-based, Macaca fascicularis; details: in vivo, 1.25 h
[32] = Drug uptake in anesthetized cynomolgus monkey brain occipital lobe after 3.5 mins postinjection; type: ADME, organism-based, Macaca fascicularis; details: in vivo
[33] = test system: Putamen; assay: Drug uptake in anesthetized cynomolgus monkey brain putamen after 115 mins postinjection; type: ADME, organism-based, Macaca fascicularis; set-up: unit not given here; details: in vivo
[34] = Drug uptake in anesthetized cynomolgus monkey brain cerebellum after 85 mins postinjection; type: ADME, organism-based, Macaca fascicularis; details: in vivo
[35] = Drug uptake in anesthetized cynomolgus monkey brain cerebellum after 45 mins postinjection; type: ADME, organism-based, Macaca fascicularis; details: in vivo, 0.75 h
[36] = Ratio of drug uptake in pons to cerebellum in anesthetized cynomolgus monkey after 35 mins postinjection; type: ADME, organism-based, Macaca fascicularis; details: in vivo
[37] = test system: Thalamus; assay: Drug uptake in anesthetized cynomolgus monkey brain thalamus after 165 mins postinjection; type: ADME, organism-based, Macaca fascicularis; set-up: unit not given here; details: in vivo, 2.75 h
[38] = Drug uptake in anesthetized cynomolgus monkey brain frontal lobe after 85 mins postinjection; type: ADME, organism-based, Macaca fascicularis; details: in vivo
[39] = Drug uptake in anesthetized cynomolgus monkey brain cerebellum after 165 mins postinjection; type: ADME, organism-based, Macaca fascicularis; details: in vivo, 2.75 h
[40] = Drug uptake in anesthetized cynomolgus monkey brain frontal lobe after 45 mins postinjection; type: ADME, organism-based, Macaca fascicularis; details: in vivo, 0.75 h
[41] = Drug uptake in anesthetized cynomolgus monkey brain occipital lobe after 2.5 mins postinjection; type: ADME, organism-based, Macaca fascicularis; details: in vivo
[42] = Ratio of drug uptake in frontal lobe to cerebellum in anesthetized cynomolgus monkey after 125 mins postinjection; type: ADME, organism-based, Macaca fascicularis; details: in vivo
[43] = test system: Midbrain; assay: Drug uptake in anesthetized cynomolgus monkey brain midbrain after 235 mins postinjection; type: ADME, organism-based, Macaca fascicularis; details: in vivo
[44] = test system: Pons; assay: Drug uptake in anesthetized cynomolgus monkey brain pons after 195 mins postinjection; type: ADME, organism-based, Macaca fascicularis; details: in vivo, 3.25 h
[45] = Ratio of drug uptake in pons to cerebellum in anesthetized cynomolgus monkey after 1.5 mins postinjection; type: ADME, organism-based, Macaca fascicularis; details: in vivo, 0.025 h
[46] = Ratio of drug uptake in pons to cerebellum in anesthetized cynomolgus monkey after 175 mins postinjection; type: ADME, organism-based, Macaca fascicularis; details: in vivo
[47] = test system: Putamen; assay: Drug uptake in anesthetized cynomolgus monkey brain putamen after 125 mins postinjection; type: ADME, organism-based, Macaca fascicularis; details: in vivo
[48] = Drug uptake in anesthetized cynomolgus monkey brain frontal lobe after 195 mins postinjection; type: ADME, organism-based, Macaca fascicularis; details: in vivo, 3.25 h
[49] = test system: Pons; assay: Drug uptake in anesthetized cynomolgus monkey brain pons after 27.5 mins postinjection; type: ADME, organism-based, Macaca fascicularis; details: in vivo
[50] = Ratio of drug uptake in occipital lobe to cerebellum in anesthetized cynomolgus monkey after 135 mins postinjection; type: ADME, organism-based, Macaca fascicularis; details: in vivo, 2.25 h
[51] = test system: Medulla; assay: Drug uptake in anesthetized cynomolgus monkey brain medulla after 125 mins postinjection; type: ADME, organism-based, Macaca fascicularis; details: in vivo
[52] = Drug uptake in anesthetized cynomolgus monkey brain occipital lobe after 155 mins postinjection; type: ADME, organism-based, Macaca fascicularis; details: in vivo
[53] = test system: Putamen; assay: Drug uptake in anesthetized cynomolgus monkey brain putamen after 155 mins postinjection; type: ADME, organism-based, Macaca fascicularis; details: in vivo
[54] = Ratio of drug uptake in thalamus to cerebellum in anesthetized cynomolgus monkey after 115 mins postinjection; type: ADME, organism-based, Macaca fascicularis; details: in vivo
[55] = test system: Putamen; assay: Drug uptake in anesthetized cynomolgus monkey brain putamen after 27.5 mins postinjection; type: ADME, organism-based, Macaca fascicularis; set-up: unit not given here; details: in vivo
[56] = test system: Caudate; assay: Drug uptake in anesthetized cynomolgus monkey brain caudate after 195 mins postinjection; type: ADME, organism-based, Macaca fascicularis, Caudate nucleus; details: in vivo, 3.25 h
[57] = test system: Pons; assay: Drug uptake in anesthetized cynomolgus monkey brain pons after 185 mins postinjection; type: ADME, organism-based, Macaca fascicularis; details: in vivo
[58] = test system: Pons; assay: Drug uptake in anesthetized cynomolgus monkey brain pons after 3.5 mins postinjection; type: ADME, organism-based, Macaca fascicularis; details: in vivo
[59] = test system: Midbrain; assay: Drug uptake in anesthetized cynomolgus monkey brain midbrain after 85 mins postinjection; type: ADME, organism-based, Macaca fascicularis; set-up: unit not given here; details: in vivo
[60] = test system: Pons; assay: Drug uptake in anesthetized cynomolgus monkey brain pons after 15.5 mins postinjection; type: ADME, organism-based, Macaca fascicularis; details: in vivo
[61] = test system: Caudate; assay: Drug uptake in anesthetized cynomolgus monkey brain caudate after 1.5 mins postinjection; type: ADME, organism-based, Macaca fascicularis, Caudate nucleus; details: in vivo, 0.025 h
[62] = test system: Midbrain; assay: Drug uptake in anesthetized cynomolgus monkey brain midbrain after 135 mins postinjection; type: ADME, organism-based, Macaca fascicularis; details: in vivo, 2.25 h
[63] = Drug uptake in anesthetized cynomolgus monkey brain cerebellum after 65 mins postinjection; type: ADME, organism-based, Macaca fascicularis; details: in vivo
[64] = test system: Thalamus; assay: Drug uptake in anesthetized cynomolgus monkey brain thalamus after 4.5 mins postinjection; type: ADME, organism-based, Macaca fascicularis; set-up: unit not given here; details: in vivo, 0.075 h
[65] = Ratio of drug uptake in thalamus to cerebellum in anesthetized cynomolgus monkey after 27.5 mins postinjection; type: ADME, organism-based, Macaca fascicularis; details: in vivo
[66] = Ratio of drug uptake in caudate to cerebellum in anesthetized cynomolgus monkey after 18.5 mins postinjection; type: ADME, organism-based, Macaca fascicularis; details: in vivo
[67] = test system: Putamen; assay: Drug uptake in anesthetized cynomolgus monkey brain putamen after 0.5 mins postinjection; type: ADME, organism-based, Macaca fascicularis; details: in vivo
[68] = Ratio of drug uptake in occipital lobe to cerebellum in anesthetized cynomolgus monkey after 235 mins postinjection; type: ADME, organism-based, Macaca fascicularis; details: in vivo

**Q.** What does the source list for `O=C(OCCC[18F])C1C2CCC(CC1c1cccc(/C=C\I)c1)N2` (stereo not drawn)?
**A.** Drug uptake [1]: 3.06; Drug uptake [2]: 2.76; Drug uptake [3]: 2.53; Ratio [4]: 1.1; Drug uptake [5]: 4.79; Drug uptake [6]: 4.82; Drug uptake [7]: 4.38; Ratio [8]: 1.6; Drug uptake [9]: 4.82; Ratio [10]: 1.5; Ratio [11]: 0.8; Drug uptake [12]: 3.82; Drug uptake [13]: 4.81; Ratio [14]: 1.4; Drug uptake [15]: 4.54; Drug uptake [16]: 3.97; Drug uptake [17]: 3.85; Drug uptake [18]: 2.08; Drug uptake [19]: 4.11; Drug uptake [20]: 4.76; Ratio [21]: 0.9; Drug uptake [22]: 2.5; Ratio [23]: 1.9; Drug uptake [24]: 4.58; Drug uptake [25]: 3.86; Drug uptake [26]: 3.61; Drug uptake [27]: 3.28; Drug uptake [28]: 2.46; Drug uptake [29]: 0.24; Drug uptake [30]: 4.59; Drug uptake [31]: 4.34; Drug uptake [32]: 1.29; Drug uptake [33]: 4.44; Drug uptake [34]: 3.6; Drug uptake [35]: 4.48; Ratio [36]: 0.9; Drug uptake [37]: 3.67; Drug uptake [38]: 2.71; Drug uptake [39]: 2.37; Drug uptake [40]: 2.84; Drug uptake [41]: 0.62; Ratio [42]: 0.9; Drug uptake [43]: 3.57; Drug uptake [44]: 3.26; Ratio [45]: 0.8; Ratio [46]: 1.4; Drug uptake [47]: 4.31; Drug uptake [48]: 1.96; Drug uptake [49]: 4.39; Ratio [50]: 1.1; Drug uptake [51]: 4.54; Drug uptake [52]: 2.63; Drug uptake [53]: 3.8; Ratio [54]: 1.4; Drug uptake [55]: 4.9; Drug uptake [56]: 2.74; Drug uptake [57]: 3.31; Drug uptake [58]: 1.71; Drug uptake [59]: 4.92; Drug uptake [60]: 3.62; Drug uptake [61]: 0.16; Drug uptake [62]: 4.45; Drug uptake [63]: 4.08; Drug uptake [64]: 2.07; Ratio [65]: 1; Ratio [66]: 0.7; Drug uptake [67]: 0.01; Ratio [68]: 1
